Assays:
[1] = test system: U25C (3WJ site mutant) (RNA, riboswitch) GGAGAGUAGAUGAUUCGCGUUAAGCGUGUGUGAAUGGGAUGUCGUCACACAACGAAGCGAGAGCGCGGUGAAUCAUUGCAUCCGCUCCA; assay: ITC; conditions: 6 mM MgCl2, 100 mM NaCl, 10 mM KCl; 10 mM HEPES pH 8.0, 1 mM DTT, 25 °C
[2] = test system: U7C (PK site mutant) (RNA, riboswitch) GGAGAGCAGAUGAUUCGCGUUAAGUGUGUGUGAAUGGGAUGUCGUCACACAACGAAGCGAGAGCGCGGUGAAUCAUUGCAUCCGCUCCA; assay: ITC; conditions: 6 mM MgCl2, 100 mM NaCl, 10 mM KCl; 10 mM HEPES pH 8.0, 1 mM DTT, 25 °C
[3] = test system: Smu wild type (wt) THF riboswitch aptamer, crystallization sequence (RNA, riboswitch) GGAGAGUAGAUGAUUCGCGUUAAGUGUGUGUGAAUGGGAUGUCGUCACACAACGAAGCGAGAGCGCGGUGAAUCAUUGCAUCCGCUCCA; conditions: apparent; ligand not given, THF from context

KD [1] [µM]	KD [2] [µM]	KD,app [3] [µM]	SMILES
18 ± 1	23 ± 2		Nc1nc2c(c(=O)[nH]1)N(C=O)[C@@H](CNc1ccc(C(=O)N[C@@H](CCC(=O)O)C(=O)O)cc1)CN2
		18 ± 1	Nc1nc2c(c(=O)[nH]1)N[C@@H](CNc1ccc(C(=O)N[C@@H](CCC(=O)O)C(=O)O)cc1)CN2

Source: PMC3196276 (2011)
